Data published in ChEMBL document CHEMBL1123880, “Beta-adrenoceptor antagonist activity of bivalent ligands. 1. Diamide analogues of practolol” (J Med Chem, 1987).

Tests used:
[1] = species on record: Rattus norvegicus; test: Ratio of dissociation constant KD' of rat lung to KD' of rat heart; type: tissue-based
[2] = biological target: Beta-1 adrenergic receptor (Rattus norvegicus) (UniProt P18090); details: Heart, Membrane
Description: Apparent dissociation constant towards beta-1 adrenergic receptor in rat heart membranes using (2-6)x10E-9M of [3AH]-DHA in the presence or absence of 10e-5 M (+/-) propranolol.

[3] = biological target: Beta-2 adrenergic receptor (Rattus norvegicus) (UniProt P10608); details: Lung, Membrane
Sequence of Beta-2 adrenergic receptor (Rattus norvegicus) (P10608 whole entry, looked up): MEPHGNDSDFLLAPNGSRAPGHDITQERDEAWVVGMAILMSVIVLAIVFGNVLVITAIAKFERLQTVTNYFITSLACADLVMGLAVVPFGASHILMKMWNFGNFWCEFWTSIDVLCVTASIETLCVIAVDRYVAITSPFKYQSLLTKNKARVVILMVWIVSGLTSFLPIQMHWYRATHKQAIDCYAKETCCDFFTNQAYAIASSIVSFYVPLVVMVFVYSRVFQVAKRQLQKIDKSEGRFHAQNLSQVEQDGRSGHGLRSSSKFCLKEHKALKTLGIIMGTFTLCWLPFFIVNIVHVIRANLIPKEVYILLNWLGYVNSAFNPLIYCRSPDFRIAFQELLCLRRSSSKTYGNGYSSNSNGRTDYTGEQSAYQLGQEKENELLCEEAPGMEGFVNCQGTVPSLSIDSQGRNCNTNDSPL
Description: Apparent dissociation constant towards beta-2 adrenergic receptor in rat lung membranes using (2-6)x10E-9M of [3AH]-DHA in the presence or absence of 10e-5 M (+/-) propranolol.

Sequence of Beta-1 adrenergic receptor (Rattus norvegicus) (P18090 whole entry, looked up): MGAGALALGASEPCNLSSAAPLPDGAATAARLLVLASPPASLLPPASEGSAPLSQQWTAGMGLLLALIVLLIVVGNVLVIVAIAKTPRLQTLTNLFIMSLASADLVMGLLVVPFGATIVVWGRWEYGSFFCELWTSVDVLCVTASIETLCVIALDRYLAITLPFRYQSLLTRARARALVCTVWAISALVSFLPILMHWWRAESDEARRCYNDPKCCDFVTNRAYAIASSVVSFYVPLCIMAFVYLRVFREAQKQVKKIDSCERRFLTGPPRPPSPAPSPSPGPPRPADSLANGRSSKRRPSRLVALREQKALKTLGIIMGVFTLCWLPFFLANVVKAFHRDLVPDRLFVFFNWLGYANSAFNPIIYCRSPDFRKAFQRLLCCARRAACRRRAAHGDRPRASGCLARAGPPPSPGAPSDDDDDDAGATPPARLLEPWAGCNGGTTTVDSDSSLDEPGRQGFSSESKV

Ratio [1] | KD' [2] [µM] | KD' [3] [µM] | Structure (SMILES)
7.5 | 9 | 67.5 | CC(C)NCC(O)COc1ccc(NC(=O)CCCCC(=O)Nc2ccc(OCC(O)CNC(C)C)cc2)cc1 (configuration not stated)
5.9 | 6.2 | 36.5 | CC(=O)Nc1ccc(OCC(O)CNC(C)C)cc1 (configuration not stated)
13.4 | 2.1 | 28.1 | CC(C)NCC(O)COc1ccc(NC(=O)CN2CCN(CC(=O)Nc3ccc(OCC(O)CNC(C)C)cc3)CC2)cc1 (configuration not stated)
5.8 | 32.2 | 186 | CC(C)NCC(O)COc1ccc(NC(=O)CNCCCCNCC(=O)Nc2ccc(OCC(O)CNC(C)C)cc2)cc1 (configuration not stated)
7.8 | 0.5 | 3.9 | CC(C)NCC(O)COc1ccc(NC(=O)CNCCCCCCCCNCC(=O)Nc2ccc(OCC(O)CNC(C)C)cc2)cc1 (configuration not stated)
14 | 0.1 | 1.4 | CC(C)NCC(O)COc1ccc(NC(=O)CCCCCCCCC(=O)Nc2ccc(OCC(O)CNC(C)C)cc2)cc1 (configuration not stated)
5.6 | 5 | 28.1 | CC(C)NCC(O)COc1ccc(NC(=O)CNCCCCCCNCC(=O)Nc2ccc(OCC(O)CNC(C)C)cc2)cc1 (configuration not stated)
0.9 | 4.4 | 3.9 | CC(C)NCC(O)COc1ccc(NC(=O)CCCCCCC(=O)Nc2ccc(OCC(O)CNC(C)C)cc2)cc1 (configuration not stated)
1.7 | 16.3 | 28.1 | CC(C)NCC(O)COc1ccc(NC(=O)CCC(=O)Nc2ccc(OCC(O)CNC(C)C)cc2)cc1 (configuration not stated)
